Data as given in patent publication US20200121677A1, “SUBSTITUTED 6,7-DIHYDROPYRAZOLO[1,5-a]PYRAZINES AS NEGATIVE ALLOSTERIC MODULATORS OF MGLUR2 RECEPTORS” (Janssen Pharmaceutica NV, priority 2014, published 2020).

Legend:
[1] = molecular target: human mGlu2 receptor (Homo sapiens, UniProt Q14416); experiment: [35S]GTPγS binding assay, mGluR2 negative allosteric modulation (membranes from CHO cells transfected with human mGlu2 receptor, glutamate ~EC80 60 μM); details: for GTPγS - hmGluR2 anGT pIC50: membranes with human mGlu2 receptor; for GTPγS - hmGluR2 anGT pIC50 / IC50: glutamate ~EC80 (60 μM), pIC50 = -log IC50 (M); for GTPγS - hmGluR2 anGT Emax: relative maximal effect: maximal % inhibition relative to the control glutamate response; for IC50: GTPγS - hmGluR2 anGT pIC50, membranes with human mGlu2 receptor; for Emax: read-out: GTPγS - hmGluR2 anGT Emax, relative maximal effect: maximal % inhibition relative to the control glutamate response;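 as to all read-outs here: membranes preincubated 30 min at 30 °C with compound plus glutamate, then [35S]GTPγS (0.1 nM) incorporation measured over another 30 min at 30 °C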
Protocol: The [^35S]GTPγS binding assay is a functional membrane-based assay used to study G-protein coupled receptor (GPCR) function whereby incorporation of a non-hydrolysable form of GTP, [^35S]GTPγS (guanosine 5′-triphosphate, labelled with gamma-emitting ^35S), is measured. […] Here we describe the use of the [^35S]GTPγS binding assay using membranes from cells transfected with the human mGlu2 receptor and adapted from Schaffhauser et al. (Molecular Pharmacology, 2003, 4:798-810) for the detection of the negative allosteric modulation (NAM) properties of the compounds of this invention.
CHO-cells were cultured to pre-confluence and stimulated with 5 mM butyrate for 24 h. Cells were then collected by scraping in PBS and cell suspension was centrifuged (10 min at 4000 RPM in benchtop centrifuge). Supernatant was discarded and pellet gently resuspended in 50 mM Tris-HCl, pH 7.4 by mixing with an Ultra Turrax homogenizer. The suspension was centrifuged at 12,400 RPM (Sorvall F14S-6x250Y) for 10 minutes and the supernatant discarded. The pellet was homogenized in 5 mM Tris-HCl, pH 7.4 using an Ultra Turrax homogenizer and centrifuged again (13,000 RPM, 20 min, 4° C.). The final pellet was resuspended in 50 mM Tris-HCl, pH 7.4 and stored at −80° C. in appropriate aliquots before use. Protein concentration was determined by the Bradford method (Bio-Rad, USA) with bovine serum albumin as standard.
Measurement of mGluR2 negative allosteric modulatory activity of test compounds was performed as follows. Test compounds and glutamate were diluted in assay buffer containing 10 mM HEPES acid, 10 mM HEPES salt, pH 7.4, 100 mM NaCl, 3 mM MgCl2 and 10 μM GDP. Human mGlu2 receptor-containing membranes were thawed on ice and diluted in assay buffer supplemented with 18 μg/ml saponin. Membranes were pre-incubated with compound together with a predefined (˜EC80) concentration of glutamate (60 μM) for 30 min at 30° C. After addition of [^35S]GTPγS (f.c. 0.1 nM), assay mixtures were shaken briefly and further incubated to allow [^35S]GTPγS incorporation on activation (30 minutes, 30° C.). Final assay mixtures contained 7 μg of membrane protein in 10 mM HEPES acid, 10 mM HEPES salt, pH 7.4, 100 mM NaCl, 3 mM MgCl2, 10 μM GDP and 10 μg/ml saponin. Total reaction volume was 200 μl. Reactions were terminated by rapid filtration through Unifilter-96 GF/B plates (Perkin Elmer, Massachusetts, USA) using a 96-well filtermate universal harvester. Filters were washed 6 times with ice-cold 10 mM NaH2PO4/10 mM Na2HPO4, pH 7.4. Filters were then air-dried, and 30 μl of liquid scintillation cocktail (Microscint-O) was added to each well. Membrane-bound radioactivity was counted in a Topcount.
Data were calculated as % of the control glutamate response, defined as the response that is generated upon addition of an EC80-equivalent concentration of glutamate.

[2] = system: rats; experiment: Reversal of the effect of the mGluR2 PAM JNJ-42153605-induced inhibition of scopolamine-induced hyperlocomotion; type: in vivo, rat; details: for ED50 SCOP JNJ-42153605 (Reversal of the effect of JNJ 42153605 on scopolamine-induced hyperlocomotion) / ED50: rats, route PO, criterion total distance >1500 cm; for ED50: Rattus norvegicus, read-out: ED50 SCOP JNJ-42153605 (Reversal of the effect of JNJ 42153605 on scopolamine-induced hyperlocomotion)
Protocol: 2) Reversal of the Effect of the mGluR2 PAM JNJ-42153605-Induced Inhibition of Scopolamine-Induced Hyperlocomotion
Motor activity was measured in microprocessor-based motor activity arenas (closed gray PVC cylinders with a height of 39 cm and a diameter of 31 cm). Each arena was placed on an infrared LED (8×8 LEDs) lit box (white PVC squared box; 40×40 cm^2; height 12.5 cm. An infrared-sensitive tube camera and a white light source were mounted to the ceiling above the observation chamber to track the animal. The total distance traveled (cm) was recorded and analyzed using the Noldus Ethovision XT Video Tracking System (Version 7.0.418; Noldus, Wageningen, The Netherlands). The intensity of the light within the activity cages (measured in the centre at the level of the floor) ranged between 4 and 8 LUX.
The rats were pretreated with test compound or vehicle at 60 min before the start of the activity recordings and placed into individual cages. The rats were challenged with JNJ-42153605 (3-(cyclopropylmethyl)-7-(4-phenylpiperidin-1-yl)-8-(trifluoromethyl)[1,2,4]triazolo[4,3-a]pyridine; WO2010/130424; Cid et al. J. Med. Chem. 2012, 55, 8770-8789) (20 mg/kg, i.v.) 30 min before the start of the activity recording combined with scopolamine (0.16 mg/kg, i.v.) just before the start of the activity measurements. Immediately after the injection of scopolamine, the rats were placed into the activity monitors and total distance traveled over the first 30 min was measured.
For reversal of the inhibitory effect of JNJ-42153605 on the scopolamine-induced hyperlocomotion, the following all-or-none criteria were adopted: (1) reversal: total distance >1500 cm.

[3] = historical solvent-pretreated control rats, first 30 min, JNJ-42153605 20 mg/kg i.v., scopolamine 0.16 mg/kg i.v.

Sequence of human mGlu2 receptor (Q14416 19-872): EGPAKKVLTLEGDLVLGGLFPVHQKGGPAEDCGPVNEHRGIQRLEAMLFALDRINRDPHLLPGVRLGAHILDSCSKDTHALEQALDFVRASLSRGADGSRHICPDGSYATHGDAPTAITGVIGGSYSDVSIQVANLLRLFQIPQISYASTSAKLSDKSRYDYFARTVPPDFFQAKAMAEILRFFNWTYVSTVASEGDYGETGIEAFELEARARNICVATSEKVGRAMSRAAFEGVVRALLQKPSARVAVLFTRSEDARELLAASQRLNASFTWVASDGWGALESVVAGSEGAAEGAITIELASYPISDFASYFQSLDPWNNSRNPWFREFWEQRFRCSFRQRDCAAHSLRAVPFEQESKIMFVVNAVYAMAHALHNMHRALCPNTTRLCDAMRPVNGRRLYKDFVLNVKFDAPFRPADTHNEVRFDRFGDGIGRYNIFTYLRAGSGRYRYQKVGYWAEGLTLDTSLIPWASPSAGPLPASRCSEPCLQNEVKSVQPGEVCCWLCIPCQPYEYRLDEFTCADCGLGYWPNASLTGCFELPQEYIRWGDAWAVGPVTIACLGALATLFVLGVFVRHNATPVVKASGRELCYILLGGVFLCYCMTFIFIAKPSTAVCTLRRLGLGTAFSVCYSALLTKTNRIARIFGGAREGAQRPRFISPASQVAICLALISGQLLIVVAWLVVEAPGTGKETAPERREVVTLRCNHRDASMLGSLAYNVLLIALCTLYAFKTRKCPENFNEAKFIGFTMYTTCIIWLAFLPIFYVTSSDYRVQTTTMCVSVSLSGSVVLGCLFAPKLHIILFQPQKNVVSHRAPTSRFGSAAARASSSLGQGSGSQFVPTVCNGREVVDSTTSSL

| GTPγS - hmGluR2 anGT pIC50 [1] | GTPγS - hmGluR2 anGT Emax [1] [%] | melting point [°C] | IC50 [1] [M] | Emax [1] [%] | Compound | ED50 SCOP JNJ-42153605 (Reversal of the effect of JNJ 42153605 on scopolamine-induced hyperlocomotion) [2] [mg/kg] | ED50 [2] [mg/kg] | Total distance traveled >1500 cm (%) [2, 3] [%] | Total distance traveled >4400 cm (%) [2, 3] [%] | Total distance traveled, Median (cm) [2, 3] [cm] |
| --- | --- | --- | --- | --- | --- | --- | --- | --- | --- | --- |
| 8.75 | 107 |  |  |  | COc1cncc(NC(=O)c2cnn3c2C(=O)N(c2ccc(Cl)c(Cl)c2)C[C@@H]3C)c1 [compound 29] | >0.63 |  |  |  |  |
| 8.3 | 107 |  |  |  | Cc1cc(N2C[C@H](C)n3ncc(C(=O)Nc4ccc(F)cn4)c3C2=O)ccc1C(F)(F)F [compound 110] | >0.63 |  |  |  |  |
|  |  | 161.92 | 1.45e-09 | 109 | Cc1cc(NC(=O)c2cnn3c2C(=O)N(c2ccc(C(F)(F)F)c(C)c2)C[C@@H]3C)cc(C)n1 [compound 111] |  | 0.32 |  |  |  |
|  |  | 167.78 | 9.12e-10 | 105 | Cc1c(F)cncc1NC(=O)c1cnn2c1C(=O)N(c1ccc(C(F)(F)F)c(Cl)c1)C[C@@H]2C [compound 133, (7S)-5-[3-chloro-4-(trifluoromethyl)phenyl]-N-(5-fluoro-4-methyl-3-pyridyl)-7-methyl-4-oxo-6,7-dihydropyrazolo[1,5-a]pyrazine-3-carboxamide] |  | > 0.63 |  |  |  |
|  |  | 212.57 | 5.37e-08 | 103 | C[C@H]1CN(c2ccc(C(F)(F)F)cc2)C(=O)c2c(C(=O)Nc3cnccc3CO)cnn21 [compound 147] |  | > 0.63 |  |  |  |
| 8.21 | 108 |  |  |  | COc1cccc(NC(=O)c2cnn3c2C(=O)N(c2ccc(C(F)(F)F)cc2)C[C@@H]3C)n1 [compound 105] | >2.5 |  |  |  |  |
|  |  | 181.5 | 2.63e-09 | 104 | C[C@H]1CN(c2ccc(C(F)(F)F)cc2)C(=O)c2c(C(=O)Nc3ccc(N)nc3)cnn21 [compound 19] |  | 0.79 |  |  |  |
| 8.48 | 108 |  |  |  | COCC1CN(c2ccc(C(F)(F)F)cc2)C(=O)c2c(C(=O)Nc3cccnc3)cnn21 (single isomer, unassigned) [compound 158] | >0.63 |  |  |  |  |
|  |  |  | 1.12e-09 | 106 | Cc1cc(N2C[C@H](C)n3ncc(C(=O)Nc4cnccn4)c3C2=O)ccc1C(F)(F)F [compound 112] |  | 0.2 |  |  |  |
| 9.06 | 107 |  |  |  | Cc1cncc(NC(=O)c2cnn3c2C(=O)N(c2ccc(Cl)c(Cl)c2)C[C@@H]3C)c1 [compound 28] | >0.63 |  |  |  |  |
|  |  | 171.4 | 1.05e-08 | 107 | Cc1cc(NC(=O)c2cnn3c2C(=O)N(c2ccc(Cl)cc2)C[C@@H]3C)ccn1 [compound 89] |  | > 2.5 |  |  |  |
| 8.31 | 113 |  |  |  | COCC1CN(c2ccc(C(F)(F)F)cc2)C(=O)c2c(C(=O)Nc3cnccn3)cnn21 (single isomer, unassigned) [compound 154] | 0.63 |  |  |  |  |
|  |  | 184.48 | 8.13e-09 | 108 | C[C@H]1CN(c2ccc(C(F)(F)F)cc2)C(=O)c2c(C(=O)Nc3ccc(F)cn3)cnn21 [compound 104] |  | > 0.63 |  |  |  |
|  |  | 178.1 | 3.55e-09 | 112 | Cc1cc(NC(=O)c2cnn3c2C(=O)N(c2ccc(Cl)c(C)c2)C[C@@H]3C)cc(C)n1 [compound 160] |  | > 0.63 |  |  |  |

Further lines, the compound ahead of its results:

| Compound | GTPγS - hmGluR2 anGT pIC50 [1] | GTPγS - hmGluR2 anGT Emax [1] [%] | melting point [°C] | IC50 [1] [M] | Emax [1] [%] | ED50 SCOP JNJ-42153605 (Reversal of the effect of JNJ 42153605 on scopolamine-induced hyperlocomotion) [2] [mg/kg] | ED50 [2] [mg/kg] | Total distance traveled >1500 cm (%) [2, 3] [%] | Total distance traveled >4400 cm (%) [2, 3] [%] | Total distance traveled, Median (cm) [2, 3] [cm] |
| --- | --- | --- | --- | --- | --- | --- | --- | --- | --- | --- |
| COc1cc(N2C[C@H](C)n3ncc(C(=O)Nc4cnccc4C)c3C2=O)ccc1C(F)(F)F [compound 32] |  |  | 243.4 | 3.47e-09 | 111 |  | > 0.63 |  |  |  |
| C[C@H]1CN(c2ccc(C(F)(F)F)cc2)C(=O)c2c(C(=O)Nc3ccncc3)cnn21 [compound 3] |  |  | 160.2 | 2.09e-09 | 116 |  | 0.08 |  |  |  |
| C[C@H]1CN(c2ccc(C(F)(F)F)c(F)c2)C(=O)c2c(C(=O)Nc3ccc(F)cn3)cnn21 [compound 78] |  |  | 183.36 | 1.35e-08 | 106 |  | > 0.63 |  |  |  |
| Cc1cc(N2C[C@H](C)n3ncc(C(=O)Nc4cnccn4)c3C2=O)ccc1Cl [compound 161] |  |  | 233.4 | 2.82e-09 | 108 |  | > 0.63 |  |  |  |
| CN1[C@@H]2C[C@@H](OC(=O)[C@H](CO)c3ccccc3)C[C@H]1[C@@H]1O[C@@H]12 [Scopolamine, scopolamine] |  |  |  |  |  |  |  | 100 | 95.8 | 7246 |
| C[C@H]1CN(c2ccc(C(F)(F)F)cc2)C(=O)c2c(C(=O)Nc3ccncc3F)cnn21 [compound 4] |  |  | 189 | 3.02e-09 | 117 |  | 1.01 |  |  |  |
| COc1cncc(NC(=O)c2cnn3c2C(=O)N(c2ccc(C(F)(F)F)c(Cl)c2)C[C@@H]3C)c1C [compound 127] |  |  | 185.94 | 4.07e-09 | 108 |  | > 0.63 |  |  |  |
| C[C@H]1CN(c2ccc(C(F)(F)F)cc2)C(=O)c2c(C(=O)Nc3ccc(F)cc3)cnn21 [compound 7] |  |  | 185.3 | 4.68e-09 | 103 |  | > 2.5 |  |  |  |
| C[C@H]1CN(c2ccc(C(F)(F)F)cc2)C(=O)c2c(C(=O)Nc3ccncn3)cnn21 [compound 141] |  |  | 224.9 | 8.32e-09 | 113 |  | > 2.5 |  |  |  |
| C[C@H]1CN(c2ccc(C(F)(F)F)c(Cl)c2)C(=O)c2c(C(=O)Nc3cnccn3)cnn21 [compound 106] |  |  |  | 1.15e-09 | 111 |  | 0.32 |  |  |  |
| C[C@H]1CN(c2ccc(C(F)(F)F)cc2)C(=O)c2c(C(=O)Nc3nccs3)cnn21 [compound 140] |  |  | 246.7 | 9.33e-09 | 111 |  | > 2.5 |  |  |  |
| C[C@H]1CN(c2ccc(C(F)(F)F)c(Cl)c2)C(=O)c2c(C(=O)Nc3ccc(F)cn3)cnn21 [compound 108] |  |  | 212.88 | 2.82e-09 | 104 |  | > 0.63 |  |  |  |
| Cc1cc(NC(=O)c2cnn3c2C(=O)N(c2ccc(C(F)(F)F)c(C)c2)C[C@@H]3C)ccn1 [compound 86] |  |  | 121.8 | 2.29e-09 | 105 |  | 1.26 |  |  |  |
| COCC1CN(c2ccc(C(F)(F)F)c(Cl)c2)C(=O)c2c(C(=O)Nc3cccnc3)cnn21 (single isomer, unassigned) [compound 156] | 8.77 | 107 |  |  |  | 0.20 |  |  |  |  |
| COc1cc(N2C[C@H](C)n3ncc(C(=O)Nc4cncc(C)c4)c3C2=O)ccc1C(F)(F)F [compound 33] |  |  | 216.6 | 3.72e-09 | 111 |  | > 0.63 |  |  |  |
| COCc1cc(N2C[C@H](C)n3ncc(C(=O)Nc4ccnc(C)c4)c3C2=O)ccc1C(F)(F)F [compound 95] |  |  |  | 5.5e-09 | 112 |  | > 2.5 |  |  |  |
| C[C@H]1CN(c2ccc(OC(F)(F)F)c(Cl)c2)C(=O)c2c(C(=O)Nc3cccnc3)cnn21 [compound 152] |  |  | 145.36 | 1.05e-09 | 108 |  | 0.08 |  |  |  |
